We go through 58 compounds from patent US20130303535A1, “NOVEL BICYCLIC HETEROCYCLIC COMPOUND” (priority 2008, published 2013).

Structures are written as SMILES. Structures can show the parent of a compound that is named as a salt.

For the first experiment, the target named is TTX resistant Na channel of human SNS-expressing cell (SNS) (Homo sapiens, UniProt Q9Y5Y9). The experiment is described as follows: cell-based. The conditions noted are these: CHO-K1, compound concentration 12.5 μM; read-out: SNS inhibitory rate (%).
TTX resistant Na channel of human SNS-expressing cell (SNS), sequence (Q9Y5Y9 whole entry, looked up): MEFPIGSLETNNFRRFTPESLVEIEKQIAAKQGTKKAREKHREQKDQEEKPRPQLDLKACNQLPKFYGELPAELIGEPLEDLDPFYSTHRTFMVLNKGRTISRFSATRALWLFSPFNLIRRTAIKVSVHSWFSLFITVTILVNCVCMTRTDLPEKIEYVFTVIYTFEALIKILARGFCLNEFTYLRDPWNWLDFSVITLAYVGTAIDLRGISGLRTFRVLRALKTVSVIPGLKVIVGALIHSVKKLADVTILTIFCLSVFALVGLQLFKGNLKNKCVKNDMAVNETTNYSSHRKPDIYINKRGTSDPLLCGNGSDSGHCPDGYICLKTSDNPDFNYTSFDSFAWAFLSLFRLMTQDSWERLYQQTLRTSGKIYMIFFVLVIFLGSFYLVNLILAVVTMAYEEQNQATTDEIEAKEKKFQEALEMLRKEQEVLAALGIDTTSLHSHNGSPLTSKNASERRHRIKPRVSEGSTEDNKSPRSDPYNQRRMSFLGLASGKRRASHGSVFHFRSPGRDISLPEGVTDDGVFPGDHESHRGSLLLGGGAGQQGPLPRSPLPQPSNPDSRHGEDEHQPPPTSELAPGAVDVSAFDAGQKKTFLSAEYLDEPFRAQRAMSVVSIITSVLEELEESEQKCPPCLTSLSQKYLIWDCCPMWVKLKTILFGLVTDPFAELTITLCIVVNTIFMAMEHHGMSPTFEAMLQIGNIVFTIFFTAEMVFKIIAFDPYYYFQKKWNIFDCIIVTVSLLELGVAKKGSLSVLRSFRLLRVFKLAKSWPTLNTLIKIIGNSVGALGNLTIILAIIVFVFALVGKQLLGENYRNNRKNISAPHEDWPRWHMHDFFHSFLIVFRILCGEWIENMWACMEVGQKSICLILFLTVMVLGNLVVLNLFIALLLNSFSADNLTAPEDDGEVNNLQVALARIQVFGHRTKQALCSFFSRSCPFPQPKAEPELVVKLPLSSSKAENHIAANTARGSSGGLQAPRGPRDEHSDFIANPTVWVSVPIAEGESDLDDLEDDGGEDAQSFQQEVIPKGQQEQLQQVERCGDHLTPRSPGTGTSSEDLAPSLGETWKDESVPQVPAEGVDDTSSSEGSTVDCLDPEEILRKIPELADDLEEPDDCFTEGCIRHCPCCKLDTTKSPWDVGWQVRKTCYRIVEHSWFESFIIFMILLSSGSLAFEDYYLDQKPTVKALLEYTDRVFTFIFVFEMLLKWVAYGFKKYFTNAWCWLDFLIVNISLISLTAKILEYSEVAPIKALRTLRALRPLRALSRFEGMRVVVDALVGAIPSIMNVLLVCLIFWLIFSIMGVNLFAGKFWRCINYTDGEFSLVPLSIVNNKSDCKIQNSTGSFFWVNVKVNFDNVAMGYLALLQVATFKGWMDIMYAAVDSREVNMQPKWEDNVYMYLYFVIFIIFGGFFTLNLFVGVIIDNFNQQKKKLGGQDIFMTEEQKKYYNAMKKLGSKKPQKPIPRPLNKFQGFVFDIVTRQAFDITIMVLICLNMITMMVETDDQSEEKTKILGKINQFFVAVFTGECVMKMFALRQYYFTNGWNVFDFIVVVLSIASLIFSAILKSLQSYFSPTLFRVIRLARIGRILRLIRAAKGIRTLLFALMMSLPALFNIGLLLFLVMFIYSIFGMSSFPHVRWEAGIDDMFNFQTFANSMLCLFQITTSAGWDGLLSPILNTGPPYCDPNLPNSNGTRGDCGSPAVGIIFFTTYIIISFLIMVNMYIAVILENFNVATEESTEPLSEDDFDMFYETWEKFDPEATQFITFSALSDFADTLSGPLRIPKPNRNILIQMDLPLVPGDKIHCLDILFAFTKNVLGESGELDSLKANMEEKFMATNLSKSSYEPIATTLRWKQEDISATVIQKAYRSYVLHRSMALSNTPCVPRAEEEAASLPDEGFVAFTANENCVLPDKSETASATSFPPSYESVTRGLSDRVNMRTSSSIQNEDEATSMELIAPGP
As for `Cc1ccc(Oc2ccc3nc(CN[C@@H](C)C(N)=O)n(C[C@H]4CCCO4)c3c2)cc1` [Example 131], the inhibition at 12.5 µM was found to be 55.9%.

With `CCOCCn1c(CNC(C)(C)C(N)=O)nc2ccc(-c3ccc(C)cc3F)cc21` [Example 166], the inhibition at 12.5 µM was determined as 62.7%.

For `CCOCCn1c(CNC(C)(C)C(N)=O)nc2ccc(-c3ccc(C)cc3C)cc21` [Example 160], the inhibition at 12.5 µM turned out to be 97%.

For `CCOCCn1c(CN[C@@H](C)C(N)=O)nc2cc(F)c(Oc3ccc(F)cc3)cc21` [Example 81, N^2-{[1-(2-ethoxyethyl)-5-fluoro-6-(4-fluorophenoxy)-1H-benzimidazol-2-yl]methyl}-L-alaninamide], the inhibition at 12.5 µM was determined as 69.1%.

For `CCOCCn1c(CN[C@@H](C)C(N)=O)nc2ccc(Oc3ccccc3F)cc21` [Example 52], the inhibition at 12.5 µM was 89.7%.

Take `C[C@H](NCc1nc2ccc(Oc3ccc(OC(F)(F)F)cc3)cc2n1C[C@@H]1CCCO1)C(N)=O` [Example 120]: the inhibition at 12.5 µM turned out to be 92.4%.

Turning to `CCn1c(CN[C@@H](C)C(N)=O)nc2ccc(-c3ccc(F)cc3)cc21` [Example 110, N^2-{[1-ethyl-6-(4-fluorophenyl)-1H-benzimidazol-2-yl]methyl}-L-alaninamide], the inhibition at 12.5 µM turned out to be 9.8%.

`CCOCCn1c(CN[C@H](C(N)=O)C(C)C)nc2ccc(Oc3ccc(F)cc3)cc21` [Example 4, N^2-{[1-(2-ethoxyethyl)-6-(4-fluorophenoxy)-1H-benzimidazol-2-yl]methyl}-L-valinamide]: the inhibition at 12.5 µM was found to be 66.8%.

As to `CCOCCn1c(CN[C@@H](C)C(N)=O)nc2ccc(-c3ccc(C)c(F)c3)cc21` [Example 169], the inhibition at 12.5 µM amounted to 68.1%.

With `CC(C)OCCn1c(CN[C@@H](C)C(N)=O)nc2ccc(Oc3ccc(F)cc3)cc21` [Example 62], the inhibition at 12.5 µM is 93.8%.

With `C[C@H](NCc1nc2ccc(Oc3ccc(OC(F)(F)F)cc3)cc2n1CC(C)(C)O)C(N)=O` [Example 103], the inhibition at 12.5 µM is 87.9%.

In the case of `CCOCCn1c(CN[C@H](C)C(N)=O)nc2ccc(Oc3ccc(F)cc3)cc21` [Example 54], the inhibition at 12.5 µM came to 95.7%.

Consider `COCCCn1c(CN[C@@H](C)C(N)=O)nc2ccc(Oc3ccc(F)cc3)cc21` [Example 64], for which the inhibition at 12.5 µM worked out at 82.7%.

For the compound `CC(C)(NCc1nc2ccc(Oc3ccccc3)cc2n1C[C@@H]1CCCO1)C(N)=O` [Example 35], the inhibition at 12.5 µM amounted to 10.8%.

With `C[C@H](NCc1nc2ccc(Oc3ccc(F)cc3F)cc2n1C[C@H]1CCCO1)C(N)=O` [Example 125], the inhibition at 12.5 µM was 95.9%.

In the case of `C[C@H](NCc1nc2ccc(Oc3ccc(OC(F)(F)F)cc3)cc2n1C1CCOCC1)C(N)=O` [Example 130], the inhibition at 12.5 µM came to 42.1%.

`CCOCCn1c(CNC(C)(C)C(N)=O)nc2ccc(-c3ccc(F)cc3C)cc21` [Example 158]: the inhibition at 12.5 µM is 86.1%.

`CCOCCn1c(CN[C@@H](C)C(=O)N2CCNC(C#N)C2)nc2ccc(Oc3ccc(F)cc3)cc21` (stereo partly shown) [Example 107]: the inhibition at 12.5 µM is 83.7%.

In the case of `CCOCCn1c(CN[C@@H](C)C(N)=O)nc2ccc(Oc3ccc(C(F)(F)F)cc3)cc21` [Example 46], the inhibition at 12.5 µM amounted to 95.5%.

On to `C[C@H](NCc1nc2ccc(Oc3ccc(OC(F)(F)F)cc3)cc2n1CCO)C(N)=O` [Example 134], for which the inhibition at 12.5 µM is 95.7%.

For the compound `CCOCCn1c(CN[C@@H](C)C(=O)N2CCNC(=O)C2)nc2ccc(Oc3ccc(F)cc3)cc21` [Example 106], the inhibition at 12.5 µM worked out at 86.4%.

As to `CCOCCn1c(CNCC(N)=O)nc2ccc(-c3ccccc3)cc21` [Example 66, N^2-{[1-(2-ethoxyethyl)-6-phenyl-1H-benzimidazol-2-yl]methyl}glycinamide], the inhibition at 12.5 µM turned out to be 16.8%.

For `CCOCCn1c(CN[C@@H](C)C(N)=O)nc2ccc(Oc3ccc(CC)cc3)cc21` [Example 102], the inhibition at 12.5 µM came to 96.3%.

Regarding `C[C@H](NCc1nc2ccc(Oc3ccc(F)c(F)c3)cc2n1C1CCOCC1)C(N)=O` [Example 128], the inhibition at 12.5 µM was found to be 85%.

Take `NC(=O)CNCc1nc2ccc(Oc3ccc(F)cc3)cc2n1C1CCC1` [Example 18]: the inhibition at 12.5 µM came to 14.2%.

Regarding `C[C@H](NCc1nc2ccc(Oc3ccc(F)cc3)cc2n1C1CCC1)C(N)=O` [Example 17], the inhibition at 12.5 µM stood at 89.3%.

`NC(=O)[C@@H]1CCCN1Cc1nc2ccc(Oc3ccccc3)cc2n1CC1CCOCC1` [Example 16]: the inhibition at 12.5 µM was determined as 96.2%.

`C[C@H](NCc1nc2ccc(Oc3ccc(F)cc3)cc2n1C[C@@H]1CCCO1)C(N)=O` [Example 56]: the inhibition at 12.5 µM turned out to be 82.2%.

On to `CCOCCn1c(CN[C@@H](C)C(N)=O)nc2cc(F)c(-c3ccc(C)cc3)cc21` [Example 184], for which the inhibition at 12.5 µM was 87.9%.

For `COCCCn1c(CNC(C)(C)C(N)=O)nc2ccc(Oc3ccc(C)cc3)cc21` [Example 142], the inhibition at 12.5 µM was found to be 47.9%.

On to `C[C@H](NCc1nc2ccc(Oc3ccc(F)cc3)cc2n1CC(C)(C)O)C(N)=O` [Example 50], for which the inhibition at 12.5 µM turned out to be 86.8%.

With `COCCn1c(CNCC(N)=O)nc2ccc(Oc3ccc(F)cc3)cc21` [Example 63], the inhibition at 12.5 µM stood at 9.2%.

`CCOCCn1c(CN[C@@H](C)C(N)=O)nc2ccc(-c3ccc(C)cc3)cc21` [Example 144]: the inhibition at 12.5 µM is 6.1%.

As for `C[C@H](NCc1nc2cc(F)c(-c3ccc(F)cc3)cc2n1C1CCOCC1)C(N)=O` [Example 116, N^2-{[5-fluoro-6-(4-fluorophenyl)-1-(tetrahydro-2H-pyran-4-yl)-1H-benzimidazol-2-yl]methyl}-L-alaninamide], the inhibition at 12.5 µM worked out at 33.2%.

Consider `CCOCCn1c(CNC(C)(C)C(N)=O)nc2ccc(-c3ccc(C)c(C)c3)cc21` [Example 162], for which the inhibition at 12.5 µM was 67.3%.

Turning to `CCOCCn1c(CN2CCC[C@H]2C(N)=O)nc2ccc(Oc3ccc(F)cc3)cc21` [Example 15], the inhibition at 12.5 µM is 95.7%.

For the compound `CCOCCn1c(CN[C@@H](C)C(N)=O)nc2cc(C(F)(F)F)c(-c3ccc(F)cc3)cc21` [Example 115, N^2-{[1-(2-ethoxyethyl)-6-(4-fluorophenyl)-5-(trifluoromethyl)-1H-benzimidazol-2-yl]methyl}-L-alaninamide], the inhibition at 12.5 µM turned out to be 3.5%.

In the case of `C[C@H](NCc1nc2ccc(Oc3ccc(F)cc3)cc2n1C1CCN(S(C)(=O)=O)CC1)C(N)=O` [Example 86, N^2-({6-(4-fluorophenoxy)-1-[1-(methylsulfonyl)piperidin-4-yl]-1H-benzimidazol-2-yl}methyl)-L-alaninamide], the inhibition at 12.5 µM came out at 8.3%.

`COCCCn1c(CNCC(N)=O)nc2ccc(Oc3ccccc3)cc21` [Example 23]: the inhibition at 12.5 µM worked out at 0.8%.

In the case of `CCOCCn1c(CN[C@@H](C)C(N)=O)nc2cc(F)c(-c3ccc(Cl)cc3)cc21` [Example 186], the inhibition at 12.5 µM was 55.6%.

Consider `CCOCCn1c(CN[C@@H](C)C(N)=O)nc2cc(F)c(-c3ccc(C)c(F)c3)cc21` [Example 189], for which the inhibition at 12.5 µM was 97.7%.

In the case of `CCOCCn1c(CN[C@@H](C)C(N)=O)nc2cc(-c3ccc(Cl)cc3)ccc21` [Example 191, N^2-{[5-(4-chlorophenyl)-1-(2-ethoxyethyl)-1H-benzimidazol-2-yl]methyl}-L-alaninamide hydrochloride], the inhibition at 12.5 µM came out at 23.3%.

In the case of `COCCCn1c(CN[C@@H](C)C(N)=O)nc2ccc(Oc3ccc(C)cc3)cc21` [Example 126], the inhibition at 12.5 µM is 56.9%.

For the compound `CCOCCn1c(CN[C@@H](C)C(N)=O)nc2cc(Cl)c(Oc3ccc(F)cc3)cc21` [Example 118, N^2-{[5-chloro-1-(2-ethoxyethyl)-6-(4-fluorophenoxy)-1H-benzimidazol-2-yl]methyl}-L-alaninamide], the inhibition at 12.5 µM turned out to be 64.5%.

As to `CCOCCn1c(CNC(C)(C)C(N)=O)nc2ccc(Oc3ccccc3Cl)cc21` [Example 32], the inhibition at 12.5 µM worked out at 91.2%.

`Cc1ccc(Oc2ccc3nc(CNC(C)(C)C(N)=O)n(C4CCOCC4)c3c2)cc1` [Example 140]: the inhibition at 12.5 µM stood at 97.5%.

Take `CCOCCn1c(CNC(C)(C)C(N)=O)nc2ccc(Oc3ccc(F)c(F)c3)cc21` [Example 141]: the inhibition at 12.5 µM turned out to be 90.3%.

Regarding `CCOCCn1c(CN[C@@H](C)C(N)=O)nc2ccc(Oc3ccc(F)cc3F)cc21` [Example 49], the inhibition at 12.5 µM was found to be 94.8%.

Regarding `CCOCCn1c(CN[C@@H](C)C(N)=O)nc2ccc(Oc3ccc(C#N)cc3)cc21` [Example 45], the inhibition at 12.5 µM was found to be 40.6%.

With `CCOCCn1c(CN[C@@H](C)C(N)=O)nc2ccc(-c3ccc(C(F)(F)F)cc3)cc21` [Example 146], the inhibition at 12.5 µM was 19.7%.

As to `CCOCCn1c(CN[C@@H](C)C(N)=O)nc2ccc(-c3ccc(C)cc3)nc21` [Example 209, N^2-{[3-(2-ethoxyethyl)-5-(4-methylphenyl)-3H-imidazo[4,5-b]pyridin-2-yl]methyl}-L-alaninamide hydrochloride], the inhibition at 12.5 µM came out at 6.5%.

As for `CCOCCn1c(CN[C@H](C)C(N)=O)nc2ccc(Oc3ccccc3)cc21` [Example 36], the inhibition at 12.5 µM was 0.4%.

`CCOCCn1c(CN[C@@H](C)C(N)=O)nc2ccc(Oc3ccccc3)cc21` [Example 1, N^2-{[1-(2-ethoxyethyl)-6-phenoxy-1H-benzimidazol-2-yl]methyl}-L-alaninamide]: the inhibition at 12.5 µM was determined as 45.8%.

Turning to `CCOCCn1c(CNCC(N)=O)nc2ccc(Oc3ccc(Cl)cc3)cc21` [Example 28], the inhibition at 12.5 µM came out at 27.4%.

As for `CCOCCn1c(CN[C@@H](C)C(N)=O)nc2ccc(Oc3ccc4c(c3)CCC4)cc21` [Example 95], the inhibition at 12.5 µM was found to be 26.8%.

Turning to `CCOCCn1c(CN[C@@H](C)C(=O)NCC(C)(C)O)nc2ccc(Oc3ccc(F)cc3)cc21` [Example 87, N^2-{[1-(2-ethoxyethyl)-6-(4-fluorophenoxy)-1H-benzimidazol-2-yl]methyl}-N-(2-hydroxy-2-methylpropyl)-L-alaninamide], the inhibition at 12.5 µM was 90.1%.

For the compound `C[C@@H](NCc1nc2ccc(Oc3ccccc3)cc2n1C1CCC1)C(N)=O` [Example 34], the inhibition at 12.5 µM came to 6.7%.

The same experiment, now with this note: compound concentration 12.5 μM.
For the compound `CCOCCn1c(CN[C@@H](C)C(N)=O)nc2cc(Cl)c(-c3ccc(F)cc3)cc21` [Example 176], the “SNS inhibitory rate (%)” value stood at 68.8%.
